From ChEMBL document CHEMBL5442379, “ASAP - SARS-CoV-2 nsp3 macrodomain single point” (2024)

Biological target: Replicase polyprotein 1ab (Severe acute respiratory syndrome coronavirus 2) (UniProt P0DTD1)
Description: Functional biochemical assay to identify treatments for viral infectious disease that targets SARS-COV-2 nsp3 macrodomain, whereby the mechanism of action displaces an ADP-Ribose modified peptide from the binding site. Utilizing a time-resolved fluorescence method to measure binding by reading the emitted fluorescence intensity in two wavelengths.

In the case of `O=C(CCN(Cc1cccc(Cl)c1)C(=O)[C@@H]1CC1(F)F)N1CCNCC1`, the inhibition (Concentration 49.75 uM, Number of replicates 2.0, Standard deviation 3.095 %) is reported as -2.07% and the inhibition (Concentration 99.5 uM, Number of replicates 2.0, Standard deviation 1.648 %) is reported as -3.76%.
Compound `O=C(Nc1ccccc1)Nc1ccc(C(=O)N[C@H]2CC[C@H](CO)CC2)cc1` has an inhibition (Concentration 49.75 uM, Number of replicates 2.0, Standard deviation 1.388 %) of -0.639% and an inhibition (Concentration 99.5 uM, Number of replicates 2.0, Standard deviation 3.79 %) of -2.58%.
`OC[C@H](Cc1ccccc1)Nc1ncnc2[nH]ccc12` showed an inhibition (Concentration 50.0 uM, Number of replicates 2.0, Standard deviation 2.629 %) of -1.29% and an inhibition (Concentration 100.0 uM, Number of replicates 2.0, Standard deviation 0.62 %) of 8.93%.
`Cc1noc([C@@H]2CCCN(c3ncnc4[nH]ccc34)C2)n1` was tested, and the inhibition (Concentration 50.0 uM, Number of replicates 2.0, Standard deviation 1.725 %) was 1.92%.
`O[C@@]1(C(F)(F)F)CCCN(c2ncnc3n[nH]cc23)CC1` was tested, and the inhibition (Concentration 50.0 uM, Number of replicates 2.0, Standard deviation 1.087 %) was -4.14%.
Compound `O=C(NCc1nc2cccnc2[nH]1)c1cnc2nc[nH]c(=O)c2c1` has an inhibition (Concentration 50.0 uM, Number of replicates 2.0, Standard deviation 1.79 %) of -1.99% and an inhibition (Concentration 100.0 uM, Number of replicates 2.0, Standard deviation 3.352 %) of 7.03%.
`O=C1CC[C@@H](CNC(=O)c2cnn3ccc(C4CCN(C(=O)c5ccccc5)CC4)cc23)N1` gave an inhibition (Concentration 49.75 uM, Number of replicates 2.0, Standard deviation 1.276 %) of -2.32% and an inhibition (Concentration 99.5 uM, Number of replicates 2.0, Standard deviation 4.674 %) of -1.47%.
With `O=C(Nc1ccccc1)Nc1ccc(C(=O)Nc2nnc(C(F)(F)F)[nH]2)cc1` the inhibition (Concentration 49.75 uM, Number of replicates 2.0, Standard deviation 1.534 %) was -3.2% and the inhibition (Concentration 99.5 uM, Number of replicates 2.0, Standard deviation 0.592 %) was -1.46%.
`O=C(OCc1cccc(Cl)n1)c1ncnc2[nH]ccc12` was tested, and the inhibition (Concentration 50.0 uM, Number of replicates 2.0, Standard deviation 4.164 %) was 11.4%.
`CO[C@@H](CNc1ncnc2[nH]ccc12)c1cccc(Cl)c1` was tested, and the inhibition (Concentration 50.0 uM, Number of replicates 2.0, Standard deviation 2.381 %) was 4.1% and the inhibition (Concentration 100.0 uM, Number of replicates 2.0, Standard deviation 2.011 %) was 14.2%.
`O=C(CCN(Cc1cccc(Cl)c1)C(=O)[C@H]1C[C@H](O)C1)N1CCNCC1` showed an inhibition (Concentration 49.75 uM, Number of replicates 2.0, Standard deviation 2.648 %) of -2.13% and an inhibition (Concentration 99.5 uM, Number of replicates 2.0, Standard deviation 5.781 %) of -3.77%.
In the case of `C[C@@H](NC(=O)c1ncnc2[nH]ccc12)c1ncc(C(=O)O)c(=O)[nH]1`, the inhibition (Concentration 49.75 uM, Number of replicates 2.0, Standard deviation 2.226 %) is reported as 4.87% and the inhibition (Concentration 99.5 uM, Number of replicates 2.0, Standard deviation 1.623 %) is reported as 10.7%.
In the case of `COc1cccc(NC(=O)c2ccc(NC(=O)Nc3ccccc3)cc2)n1`, the inhibition (Concentration 49.75 uM, Number of replicates 2.0, Standard deviation 3.541 %) is reported as 4.65% and the inhibition (Concentration 99.5 uM, Number of replicates 2.0, Standard deviation 3.473 %) is reported as 5.37%.
`O=C(CCCc1cccnc1)Nc1cnc2[nH]ncc2c1` was tested, and the inhibition (Concentration 50.0 uM, Number of replicates 2.0, Standard deviation 5.838 %) was -3.65%.
Work on `O=C(NCc1nc(-c2ccco2)n[nH]1)c1cc2nccn2c(=O)[nH]1` yielded an inhibition (Concentration 50.0 uM, Number of replicates 2.0, Standard deviation 0.515 %) of -5.42%.
`Cc1cc(NCc2csc(C)n2)ncn1` gave an inhibition (Concentration 50.0 uM, Number of replicates 2.0, Standard deviation 0.576 %) of -4.64%.
`O=C(Nc1ccccc1)Nc1ccc(C(=O)N2CCc3nc[nH]c3C2)cc1` gave an inhibition (Concentration 49.75 uM, Number of replicates 2.0, Standard deviation 2.91 %) of -3.02% and an inhibition (Concentration 99.5 uM, Number of replicates 2.0, Standard deviation 5.124 %) of -2.38%.
Compound `O=C(NCc1ccc(Cl)cn1)c1ncnc2[nH]ccc12` has an inhibition (Concentration 50.0 uM, Number of replicates 2.0, Standard deviation 1.293 %) of -4.96% and an inhibition (Concentration 100.0 uM, Number of replicates 2.0, Standard deviation 0.093 %) of -2.57%.
With `Cc1cncc(NCc2csc(-c3ccccn3)n2)c1` the inhibition (Concentration 50.0 uM, Number of replicates 2.0, Standard deviation 0.194 %) was -5.02%.
`O=C(Cn1c(=O)[nH]c2ccccc21)Nc1cnc2[nH]ncc2c1` was tested, and the inhibition (Concentration 50.0 uM, Number of replicates 2.0, Standard deviation 2.142 %) was 1.78%.
`Cn1c(C(=O)NCCNC(=O)c2ccco2)cc2c(=O)n3ccccc3nc21` showed an inhibition (Concentration 50.0 uM, Number of replicates 2.0, Standard deviation 1.378 %) of -4.47%.
Compound `NC(=O)c1ccccc1NC(=O)c1ncnc2[nH]ccc12` has an inhibition (Concentration 50.0 uM, Number of replicates 2.0, Standard deviation 0.083 %) of -2.59%.
Compound `OC[C@@H]1CN(c2ncnc3nc[nH]c23)CCC1(F)F` has an inhibition (Concentration 50.0 uM, Number of replicates 2.0, Standard deviation 0.855 %) of 1.75%.
`c1cc(-c2nnc(Sc3ncnc4[nH]ccc34)[nH]2)ccn1` was tested, and the inhibition (Concentration 50.0 uM, Number of replicates 2.0, Standard deviation 4.573 %) was 10.7%, the inhibition (Concentration 50.0 uM, Number of replicates 2.0, Standard deviation 8.715 %) was 5.47% and the inhibition (Concentration 100.0 uM, Number of replicates 2.0, Standard deviation 31.914 %) was 3.32%.
`O=C(OCC(Br)=C1CCOCC1)c1ncnc2[nH]ccc12` was tested, and the inhibition (Concentration 50.0 uM, Number of replicates 2.0, Standard deviation 2.217 %) was -5.36%.
For `COC[C@@H](Nc1ncnc2nc[nH]c12)c1ccc(C)o1`, the inhibition (Concentration 49.75 uM, Number of replicates 2.0, Standard deviation 2.621 %) was -4.64% and the inhibition (Concentration 99.5 uM, Number of replicates 2.0, Standard deviation 0.049 %) was 3.94%.
`Cn1nc(NC(=O)c2cc(-c3ccco3)[nH]n2)c2nccnc21` gave an inhibition (Concentration 50.0 uM, Number of replicates 2.0, Standard deviation 0.879 %) of -5.4%.
`O=C(c1ccccc1)N1CCC(c2ccn3ncc(C(=O)N4CCc5cccnc54)c3c2)CC1` was tested, and the inhibition (Concentration 49.75 uM, Number of replicates 2.0, Standard deviation 3.564 %) was -4.67% and the inhibition (Concentration 99.5 uM, Number of replicates 2.0, Standard deviation 0.208 %) was -8.02%.
Work on `COC(=O)c1cc2c(Oc3ccccc3C#N)ncnc2[nH]1` yielded an inhibition (Concentration 50.0 uM, Number of replicates 2.0, Standard deviation 0.741 %) of 2.92%.
Work on `O=C(OCc1ccc(Cl)nc1)c1ncnc2[nH]ccc12` yielded an inhibition (Concentration 50.0 uM, Number of replicates 2.0, Standard deviation 1.988 %) of 6.08%.
For `O=S(=O)(Nc1ncccn1)c1ccc2oc3ccccc3c2c1`, the inhibition (Concentration 50.0 uM, Number of replicates 2.0, Standard deviation 5.51 %) was -3%.
`Cn1ncc2c(NCc3ncccc3O)ncnc21` gave an inhibition (Concentration 50.0 uM, Number of replicates 2.0, Standard deviation 16.275 %) of 3.89%.
In the case of `Cn1cc([C@H]2CCCCN2c2ncnc3[nH]ccc23)cn1`, the inhibition (Concentration 49.75 uM, Number of replicates 2.0, Standard deviation 3.479 %) is reported as 6.39% and the inhibition (Concentration 99.5 uM, Number of replicates 2.0, Standard deviation 0.865 %) is reported as 8.32%.
`c1cc(CNc2ncnc3nc[nH]c23)n2ncnc2c1` was tested, and the inhibition (Concentration 50.0 uM, Number of replicates 2.0, Standard deviation 1.124 %) was 1.35% and the inhibition (Concentration 100.0 uM, Number of replicates 2.0, Standard deviation 5.338 %) was 10%.
`OC[C@@H](Nc1ncnc2[nH]c(I)cc12)c1ccccc1` gave an inhibition (Concentration 50.0 uM, Number of replicates 2.0, Standard deviation 1.35 %) of 26.1%.
`COc1ccc(Nc2ncnc3[nH]ncc23)c(OC)c1` showed an inhibition (Concentration 50.0 uM, Number of replicates 2.0, Standard deviation 7.795 %) of 2.6%.
Compound `Cc1cnc(C(=O)N(CCC(=O)N2CCNCC2)Cc2cccc(Cl)c2)nc1` has an inhibition (Concentration 49.75 uM, Number of replicates 2.0, Standard deviation 2.063 %) of -1.49% and an inhibition (Concentration 99.5 uM, Number of replicates 2.0, Standard deviation 9.956 %) of 6.47%.
Compound `Cc1cnc(CCNc2ncnc3[nH]ncc23)c(C)c1` has an inhibition (Concentration 50.0 uM, Number of replicates 2.0, Standard deviation 4.479 %) of 4.34%.
In the case of `COC(=O)[C@]1(F)CCN(C(=O)c2ccc(NC(=O)Nc3ccccc3)cc2)C1`, the inhibition (Concentration 49.75 uM, Number of replicates 2.0, Standard deviation 1.195 %) is reported as -0.893% and the inhibition (Concentration 99.5 uM, Number of replicates 2.0, Standard deviation 2.11 %) is reported as 0.834%.
In the case of `O=C(c1cc(O)ccn1)N1CCC(c2ccn3ncc(C(=O)N4CCCCC4)c3c2)CC1`, the inhibition (Concentration 49.75 uM, Number of replicates 2.0, Standard deviation 1.167 %) is reported as 17.6% and the inhibition (Concentration 99.5 uM, Number of replicates 2.0, Standard deviation 1.673 %) is reported as 32.2%.
Work on `Cc1ncc(C(=O)N(CCC(=O)N2CCNCC2)Cc2cccc(Cl)c2)cc1N` yielded an inhibition (Concentration 49.75 uM, Number of replicates 2.0, Standard deviation 3.028 %) of 1.35% and an inhibition (Concentration 99.5 uM, Number of replicates 2.0, Standard deviation 0.599 %) of 1.3%.
`CC(C)[C@@H]1[C@H](O)CCN1c1ncnc2[nH]ccc12` was tested, and the inhibition (Concentration 49.75 uM, Number of replicates 2.0, Standard deviation 3.675 %) was 17.7% and the inhibition (Concentration 99.5 uM, Number of replicates 2.0, Standard deviation 0.827 %) was 32.1%.
`COCc1nc(CNc2c(C#N)c(C)nn2C)cs1` showed an inhibition (Concentration 50.0 uM, Number of replicates 2.0, Standard deviation 4.858 %) of 0.8%.
For `Cc1nn(C)c(NCc2nc(CO)cs2)c1C#N`, the inhibition (Concentration 50.0 uM, Number of replicates 2.0, Standard deviation 1.694 %) was 2.1%.
Work on `Cc1nccc(C(=O)N2CCC(c3ccn4ncc(C(=O)N5CCCCC5)c4c3)CC2)n1` yielded an inhibition (Concentration 49.75 uM, Number of replicates 2.0, Standard deviation 2.531 %) of 16.5% and an inhibition (Concentration 99.5 uM, Number of replicates 2.0, Standard deviation 1.199 %) of 27.4%.
`Cc1c[nH]nc1C(=O)N1CCC(c2ccn3ncc(C(=O)N4CCCCC4)c3c2)CC1` showed an inhibition (Concentration 49.75 uM, Number of replicates 2.0, Standard deviation 6.018 %) of 8.47% and an inhibition (Concentration 99.5 uM, Number of replicates 2.0, Standard deviation 4.753 %) of 27.4%.
In the case of `O=C1C[C@H](CNC(=O)c2ccc(NC(=O)Nc3ccccc3)cc2)CCN1`, the inhibition (Concentration 49.75 uM, Number of replicates 2.0, Standard deviation 1.043 %) is reported as 1.22% and the inhibition (Concentration 99.5 uM, Number of replicates 2.0, Standard deviation 0.12 %) is reported as 4.01%.
`C[C@H](NC(=O)c1ccc(NC(=O)Nc2ccccc2)cc1)[C@@H]1CCCO1` was tested, and the inhibition (Concentration 49.75 uM, Number of replicates 2.0, Standard deviation 1.099 %) was -4.28% and the inhibition (Concentration 99.5 uM, Number of replicates 2.0, Standard deviation 2.587 %) was -4.86%.
`c1coc(CNc2ncnc3[nH]cnc23)c1` showed an inhibition (Concentration 50.0 uM, Number of replicates 2.0, Standard deviation 0.16 %) of 2.63%.
`CCc1nc(CN(C)c2nc(C)nc3[nH]ccc23)cs1` was tested, and the inhibition (Concentration 50.0 uM, Number of replicates 2.0, Standard deviation 3.767 %) was -6.13%.
Compound `Cc1[nH]cnc1C(=O)N1CCC(c2ccn3ncc(C(=O)N4CCCCC4)c3c2)CC1` has an inhibition (Concentration 49.75 uM, Number of replicates 2.0, Standard deviation 1.318 %) of 16.4% and an inhibition (Concentration 99.5 uM, Number of replicates 2.0, Standard deviation 4.675 %) of 32%.
`O=C(NCc1cn[nH]c1)c1cnn2ccc(C3CCN(C(=O)c4ccccc4)CC3)cc12` gave an inhibition (Concentration 49.75 uM, Number of replicates 2.0, Standard deviation 0.103 %) of -2.37% and an inhibition (Concentration 99.5 uM, Number of replicates 2.0, Standard deviation 3.225 %) of -4.5%.
